For 42 compounds, drug sensitivity score results are on record in the supplement of paper PMC9265050, “Inhibition of RNA Binding in SND1 Increases the Levels of miR-1-3p and Sensitizes Cancer Cells to Navitoclax” (Cancers, 2022).

The test system of this test is SW480. The test is described as follows: drug sensitivity score (DSS, integrated dose-response area); higher = more sensitive (stronger viability reduction); extreme values may be limits of the assay. The method in brief:
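The drug sensitivity score is the integrated area under a fitted non-linear dose–response model. It was derived from SW480 cells with doxycycline-inducible control or SND1-targeting shRNA, induced with 0.1 µg/mL doxycycline for 7 days and plated at 1000 cells per well on 384-well plates of 525 commercially available small-molecule inhibitors at five concentrations. CellTiter-Glo measured viability after 72 h.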

Setting [1] is: shRNA: SND1 shRNA1 (SND1 silenced).
Where [2] appears, read: shRNA: SND1 shRNA2 (SND1 silenced).
Setting [3] is: shRNA: control shRNA (non-targeting).

`CN1CCC(CNc2ccc3ncc(-c4cccc(OC(F)(F)F)c4)n3n2)CC1` [SGI-1776]: the drug sensitivity score under setting [1] was determined as 9.6 DSS, the drug sensitivity score under setting [2] was 9.5 DSS and the drug sensitivity score under setting [3] came out at 8.9 DSS.
For `Oc1ncnc2[nH]ncc12` [Allopurinol], the drug sensitivity score came to 0.2 DSS under setting [1], 0 DSS under setting [2] and 1.2 DSS under setting [3].
Regarding `CCN1CCN(Cc2ccc(-c3cc4c(N[C@H](C)c5ccccc5)ncnc4[nH]3)cc2)CC1` [NVP-AEE788], the drug sensitivity score amounted to 1.5 DSS under setting [1], 1.3 DSS under setting [2] and 2.8 DSS under setting [3].
Consider `COc1cc2c(Oc3ccc(NC(=O)C4(C(=O)Nc5ccc(F)cc5)CC4)cc3F)ccnc2cc1OCCCN1CCOCC1` [Foretinib], for which the drug sensitivity score by setting is: under setting [1], 4.1 DSS; under setting [2], 4.2 DSS; under setting [3], 5 DSS.
Regarding `COc1cccc2c1c(O)c(C(=O)N(C)c1ccc(C(F)(F)F)cc1)c(=O)n2C` [Tasquinimod], the drug sensitivity score turned out to be 3.7 DSS under setting [1], 0 DSS under setting [2] and 2.3 DSS under setting [3].
Consider `CN1CCN(c2ccc3nc(-c4c(N)c5c(F)cccc5[nH]c4=O)[nH]c3c2)CC1` [Dovitinib], for which the drug sensitivity score came out at 0.1 DSS under setting [1], 0 DSS under setting [2] and 0 DSS under setting [3].
Consider `CCS(=O)(=O)c1cccc(-c2cc(C(=O)NC3CCN(C)CC3)c(C)c3[nH]c4ncc(C)cc4c23)c1` [TAK-901], for which the drug sensitivity score under setting [1] came out at 0.6 DSS, the drug sensitivity score under setting [2] turned out to be 0 DSS and the drug sensitivity score under setting [3] came out at 2.1 DSS.
Take `CCCNC(=O)Nc1ccc(Oc2ncnc3cc(OC)c(OC)cc23)cc1Cl` [KRN-633]: the drug sensitivity score under setting [1] was 0 DSS, the drug sensitivity score under setting [2] was found to be 0.4 DSS and the drug sensitivity score under setting [3] is 0.6 DSS.
`CO[C@@H]1[C@H](N(C)C(=O)c2ccccc2)C[C@H]2O[C@]1(C)n1c3ccccc3c3c4c(c5c6ccccc6n2c5c31)C(=O)NC4` [Midostaurin]: the drug sensitivity score by setting is: under setting [1], 14.3 DSS; under setting [2], 14.7 DSS; under setting [3], 14.5 DSS.
Turning to `Nc1nccc(-c2c(-c3ccc(F)cc3)ncn2C2CCCCC2)n1`, the drug sensitivity score is 0.8 DSS under setting [1], 0.4 DSS under setting [2] and 0.8 DSS under setting [3].
For the compound `CN1CCN(C2CCN(C(=O)Nc3cc(Oc4ccc(NC(=O)C5(C(=O)Nc6ccc(F)cc6)CC5)c(F)c4)ccn3)CC2)CC1` [Golvatinib], the drug sensitivity score runs as follows: under setting [1], 0 DSS; under setting [2], 2.2 DSS; under setting [3], 0 DSS.
In the case of `O=C(O)C1(C(=O)O)CCC1.[NH2-].[NH2-].[Pt+2]` [Carboplatin], the drug sensitivity score runs as follows: under setting [1], 1 DSS; under setting [3], 0.5 DSS.
As to `O=C1CCC(N2C(=O)c3ccccc3C2=O)C(=O)N1` (centres undefined) [Thalidomide], the drug sensitivity score reads like this: under setting [1], 0.5 DSS; under setting [2], 0.1 DSS; under setting [3], 2 DSS.
For the compound `Cc1ccc(F)c(NC(=O)Nc2ccc(-c3cccc4[nH]nc(N)c34)cc2)c1` [Linifanib], the drug sensitivity score came out at 0 DSS under setting [1], 0 DSS under setting [2] and 0 DSS under setting [3].
`COc1cc([C@@H]2c3cc4c(cc3[C@@H](O[C@@H]3O[C@@H]5CO[C@@H](C)O[C@H]5[C@H](O)[C@H]3O)[C@H]3COC(=O)[C@H]23)OCO4)cc(OC)c1O` [Etoposide]: the drug sensitivity score came to 3.1 DSS under setting [1], 0.4 DSS under setting [2] and 3.3 DSS under setting [3].
`O=c1[nH]cc(F)c(=O)[nH]1` [Fluorouracil] showed a drug sensitivity score under setting [1] of 0.5 DSS, a drug sensitivity score under setting [2] of 0 DSS and a drug sensitivity score under setting [3] of 1.1 DSS.
On to `CNC(=O)c1cc(Oc2ccc(NC(=O)Nc3cc(C(C)(C)C)nn3-c3ccc4ncccc4c3)c(F)c2)ccn1` [Rebastinib], for which the drug sensitivity score runs as follows: under setting [1], 0 DSS; under setting [2], 0 DSS; under setting [3], 0 DSS.
For the compound `CCCCNc1ncc(C(=O)NCc2ccc(-n3ccnc3)cc2)c(NC2CCC(O)CC2)n1` (centres undefined) [UNC2881], the drug sensitivity score by setting is: under setting [1], 0 DSS; under setting [2], 0 DSS; under setting [3], 0 DSS.
Consider `C[C@@H](Nc1cc(F)cc(F)c1)c1cc(C(=O)N(C)C)cc2c(=O)cc(N3CCOCC3)oc12` [AZD-8186], for which the drug sensitivity score is, setting by setting: under setting [1], 0 DSS; under setting [2], 0 DSS; under setting [3], 0 DSS.
Compound `Cc1ccc(C(=O)N(CCCN)[C@@H](c2oc3cc(Cl)ccc3c(=O)c2Cc2ccccc2)C(C)C)cc1` registered a drug sensitivity score under setting [1] of 2.9 DSS, a drug sensitivity score under setting [2] of 3.7 DSS and a drug sensitivity score under setting [3] of 5.5 DSS.
Turning to `Cc1[nH]c2ccccc2c1CCNCc1ccc(/C=C/C(=O)NO)cc1` [Panobinostat], the drug sensitivity score turned out to be 19.9 DSS under setting [1], 19.2 DSS under setting [2] and 17.4 DSS under setting [3].
For the compound `Cc1cc(-c2nc(-c3ccc(OC(F)(F)F)cc3)no2)nn1Cc1ccnc(N2CCN(C3CC3)CC2)c1` [BAY 87-2243], the drug sensitivity score runs as follows: under setting [1], 0.3 DSS; under setting [2], 21.9 DSS; under setting [3], 1.1 DSS.
Consider `Cc1ccccc1C(C(=O)NC1CCCCC1)N(C(=O)Cn1ccnc1C)c1cccc(F)c1` (centres undefined) [AGI-5198], for which the drug sensitivity score runs as follows: under setting [1], 0 DSS; under setting [3], 3.6 DSS.
In the case of `CC[C@H](C)C(=O)O[C@H]1C[C@H](O)C=C2C=C[C@H](C)[C@H](CC[C@@H](O)C[C@@H](O)CC(=O)O)[C@H]21` [Pravastatin], the drug sensitivity score reads like this: under setting [1], 0 DSS; under setting [3], 3.1 DSS.
As to `Cc1csc(-c2nnc(Nc3ccc(Oc4ncccc4-c4ccnc(N)n4)cc3)c3ccccc23)c1` [AMG-900], the drug sensitivity score turned out to be 5 DSS under setting [1], 0 DSS under setting [2] and 1.7 DSS under setting [3].
Taken in the same sequence, the figures for `C=CC(=O)Nc1cc2c(Nc3ccc(F)c(Cl)c3)ncnc2cc1OCCCN1CCOCC1` [Canertinib] were 7 DSS, 6.2 DSS and 8.6 DSS.
Taken in the same sequence, the figures for `S=c1[nH]cnc2nc[nH]c12` [Mercaptopurine] were 9.7 DSS, 5.3 DSS and 6.3 DSS.
With `C[C@@H]1C=C2C(=O)O[C@@H]3CC[C@H](C1)[C@]23O` [Galiellalactone], the drug sensitivity score is, setting by setting: under setting [1], 3.8 DSS; under setting [2], 4.2 DSS; under setting [3], 3.4 DSS.
`C[C@@H]1COC(Nc2ccc3ncnc(Nc4ccc(OCc5nccs5)c(Cl)c4)c3c2)=N1` [Varlitinib] yielded a drug sensitivity score under setting [1] of 0.4 DSS, a drug sensitivity score under setting [2] of 1.2 DSS and a drug sensitivity score under setting [3] of 3.5 DSS.
As to `C[C@]12O[C@H](C[C@]1(O)CO)n1c3ccccc3c3c4c(c5c6ccccc6n2c5c31)CNC4=O` [Lestaurtinib], the drug sensitivity score stood at 6.8 DSS under setting [1], 7.1 DSS under setting [2] and 8.3 DSS under setting [3].
In the case of `C[C@@H](C(=O)O)c1ccc(-c2ccccc2)c(F)c1` [Tarenflurbil], the drug sensitivity score worked out at 0 DSS under setting [1], 0 DSS under setting [2] and 0 DSS under setting [3].
Turning to `Cc1ccc(-n2nc(C(C)(C)C)cc2NC(=O)Nc2ccc(OCCN3CCOCC3)c3ccccc23)cc1` [Doramapimod], the drug sensitivity score by setting is: under setting [1], 4.1 DSS; under setting [2], 5.5 DSS; under setting [3], 6 DSS.
Take `COc1ccc(-c2nc(N3CCOCC3)c3sc(CN(C)c4ncc(C(=O)NO)cn4)cc3n2)cn1` [CUDC-907]: the drug sensitivity score under setting [1] came out at 40.7 DSS, the drug sensitivity score under setting [2] was determined as 33.9 DSS and the drug sensitivity score under setting [3] worked out at 34.2 DSS.
Taken in the same sequence, the figures for `Cc1c(Cn2c(C)nc3c(C(=O)O)cc(N4CCOCC4)cc32)cccc1C(F)(F)F` were 2 DSS, 3.3 DSS and 0.8 DSS.
Regarding `O=S(=O)(c1cccc2c(O)nccc12)N1CCCNCC1` [Hydroxyfasudil], the drug sensitivity score runs as follows: under setting [1], 1.6 DSS; under setting [3], 3.5 DSS.
As to `O=C(c1cccc(Cl)c1F)N1CCN(Cc2cccc(Nc3nccs3)n2)CC1` [MK-8745], the drug sensitivity score runs as follows: under setting [1], 1.7 DSS; under setting [3], 1.9 DSS.
Taken in the same sequence, the figures for `Cc1nc(N)sc1-c1ccnc(Nc2ccc(N3CCOCC3)cc2)n1` [CYC-116] were 9.3 DSS and 8.8 DSS.
Taken in the same sequence, the figures for `C[C@@H]1CN(Cc2ccc(F)cc2)[C@@H](C)CN1C(=O)c1cc2c(C(=O)C(=O)N(C)C)cn(C)c2cc1Cl` [Talmapimod] were 0 DSS and 0 DSS.
As to `COc1cccc2c1C(=O)c1c(O)c3c(c(O)c1C2=O)C[C@@](O)(/C(CO)=N/NC(=O)CCCCCN1C(=O)C=CC1=O)C[C@@H]3O[C@H]1C[C@H](N)[C@H](O)[C@H](C)O1` [Aldoxorubicin], the drug sensitivity score reads like this: under setting [1], 7.5 DSS; under setting [2], 5.7 DSS; under setting [3], 8.4 DSS.
Taken in the same sequence, the figures for `O=NN(CCCl)C(=O)NCCCl` [Carmustine] were 0 DSS, 0 DSS and 0.4 DSS.
As to `Cc1cc2c(F)c(Oc3ncnn4cc(OC[C@@H](C)O)c(C)c34)ccc2[nH]1` [Brivanib], the drug sensitivity score runs as follows: under setting [1], 0 DSS; under setting [2], 0 DSS; under setting [3], 0 DSS.
For `O=C(Nc1ccc(OC(F)(F)F)cc1)c1sccc1NCc1ccnc2ccccc12` [OSI-930], the drug sensitivity score is, setting by setting: under setting [1], 1.8 DSS; under setting [2], 6.5 DSS; under setting [3], 6.3 DSS.
